Source: patent US10568892B2, “Cycloartane tetracyclic triterpenoid compound, preparation method therefor and use thereof” (Hefei Cosource Pharmaceuticals Inc., priority 2016, dated 2020)
Marks after values point to notes of the source that are not given here.

Legend:
[1] = test system: ventricular papillary muscle cell of guinea pig; test: Action potential of the ventricular papillary muscle cell of guinea pig (electrophysiological recording); format: cell-based
Protocol: Method: One guinea pig was taken to violently hit the back of the brain such that it fainted. The common carotid artery was cut off for bleeding to kill the guinea pig. The chest was incised to expose the heart, and the ventricle was cut open along the interventricular septum to expose the lumen of the left ventricle. The papillary muscles were quickly taken out and placed in a Kreb's solution saturated with O2 (mixed gas of 95% O2 and 5% CO2) at 0° C. After the microscopic dressing, the papillary muscle specimen was fixed with a stainless steel needle on the silicone rubber at the bottom of the perfusion bath, and perfused with the oxygen-saturated Kreb's solution. The relevant parameters for perfusion: the temperature was 37±0.5° C., and the flow rate was 4 mL/min.
Cellular action potentials were recorded using a conventional electrophysiological method. The glass electrode filled with 3M KCl saturated solution and having a tip resistance of 15-30 MΩ was fixed on the microelectrode manipulator MP-2. The glass electrode was gently inserted into the superficial layer of the prepared papillary muscle specimen using a microelectrode pusher. The electrode was adjusted to provide the predetermined bioelectrical stimulation with the triple-channel SEN-7203 electronic stimulator and SS-202 J isolator. The bioelectrical signal was amplified by the MEZ-8301 amplifier and then input to the computerized electrophysiological recording and analysis system Powerlab 4/25. Subsequently, the relevant parameters of the action potential for the ventricular papillary muscle were analyzed through the analysis system. The relevant parameters for electrical stimulation: 30 ms latency, 7 ms wavewidth, 1 Hz frequency, 52.1 my stimulation intensity.
In the compound screening test stage, after the ventricular papillary muscle specimen of the guinea pig was fixed, it was first perfused with a normal Kreb's solution for about 85 minutes for stabilization, and the relevant parameters of the cellular action potential before administration were recorded at about 80 min after the start of perfusion. The three-limb tube was used to convert the perfusates containing the title compounds. The title compounds were continuously perfused for about 25 min successively with low (0.0005 μM), medium (0.005 μM), and high (0.05 μM) concentrations, respectively. At about 20 min after the start of drug perfusions at different concentrations, the relevant parameters of the action potentials for the ventricular papillary muscle of guinea pig were observed and recorded, respectively. The normal Kreb's solution was used to perfuse and elute for about 25 min during the intervals between drug perfusions at different concentrations.
The experiment was divided into the following five groups with 6 animals in each group: a vehicle control group, a 369 low dose (0.0005 μM) group, a 369 medium dose (0.005 μM) group, a 369 high dose (0.05 μM) group, and an amiodarone (10 μM) positive control group. After the ventricular papillary muscle specimen of the guinea pig was fixed, it was first perfused with a normal Kreb's solution for about 85 minutes for stabilization, and the relevant parameters of the cellular action potential before administration were recorded at about 80 min after the start of perfusion. According to groups, the three-limb tube was configured to convert the perfusates containing the vehicle, positive control, or Compound 369 at the corresponding concentrations to continuously perfuse for about 25 min. At about 20 min after the start of the perfusions, the relevant parameters of the action potentials for the ventricular papillary muscle of guinea pig were observed and recorded.

guinea pig heart = test: Atrial fibrillation induced by high- and low-potassium Langendorff perfusion of the guinea pig heart; conditions: 1 μM; within 60 min of low-potassium perfusion
From the text: Method: a total of 24 guinea pigs were divided into 4 groups according to body weight, and were sacrificed. The heart was quickly taken out, and the blood was squeezed in the ice bath perfusion solution. The heart was quickly transferred in the Langendorff perfusion system, and the perfusion at a constant rate was started by turning on the oxygen-saturated perfusate. One end of the electrode was placed at the cardiac apex, and one end was placed at the right atrium (the position of the atrial appendage). The electrocardiogram was recorded on the computer.
After the heart was stabilized, 10 min after the perfusion of high-K perfusate, blank vehicle, 0.1 μM, 1 μM, and 10 μM of Compound 369, 1 μM Amiodarone and Cyclovirobuxine D were simultaneously administrated and the high K perfusion was continued for 20 min, respectively. Then, the high K perfusion was removed to administrate the low-K perfusate, and the electrocardiogram was obtained at the same time to record whether there was atrial fibrillation within 60 min of low-potassium perfusion.

SD rats [2] = test: Rat myocardial ischemia model with coronary artery ligation and reperfusion (arrhythmia incidence); format: in vivo; conditions: injection (sublingually) 5 min before ischemia
From the text: Method: SD rats were anesthetized with pentobarbital, and a cervical midline incision was made to separate and cut off the trachea such that it was connected to a respirator. The skin was cut along the midline of the left clavicle of the rat, and the chest was opened between the left third and fourth ribs to gently squeeze out the heart. The pericardium was opened, the needle was inserted at the left edge of the pulmonary artery cone and 2 mm at the lower edge of the left atrial appendage. The 6-0 non-invasive suture was threaded through the superficial myocardium, with the left anterior descending coronary artery (LAD) located thereon. After stabilization for 5 min, a double-layer plastic cannula was put on, and the cable tie was tighten to complete the myocardial ischemia induced by left coronary artery occlusion. The criterion for myocardial ischemia is the occurrence of myocardial infarction (St-segment ran up or T-wave was shown as high sharp wave) in the electrocardiogram and the presence of local cyanosis in the heart. After 5 min of myocardial ischemia, the inner cannula was withdrawn, that is, the wire knot was released for reperfusion, and the electrocardiogram of reperfusion in the rat was recorded.
The administration was performed at 5 min before the ischemia by coronary artery ligation, and the administration mode was injection administration (sublingually).

SD rats [3] = test: Single-dose toxicity (MTD) in SD rats; format: in vivo; conditions: SD rat; single intravenous injection
From the text: (§1) The results of the experimental study on the toxicity of Compound 369 administrated through a single intravenous or intragastrical administration in SD rats and KM mice are shown in Table 9.

KM mice = test: Single-dose toxicity (MTD) in KM mice; format: in vivo; conditions: KM mouse; single intragastrical administration
From the text: as §1

[4] = Pharmacokinetics in SD rats; format: in vivo, rat; conditions: SD rats, 2 mg/kg
Protocol: Method: twelve SD male rats were divided into four groups: 2 mg/kg of Compound 369 or cyclovirobuxine D was single dose through the intravenous injection or intragastrical administration, respectively. In the intravenous and intragastrical groups, blood samples (about 0.3 Ml) were collected from the posterior orbital venous plexus pro-dose and 0.25 h, 0.5 h, 1 h, 2 h, 4 h, 6 h, 8 h, and 12 h post-dose. The concentrations of Compound 369 and cyclovirobuxine D in plasma samples were determined by LC-MS/MS, and the pharmacokinetic parameters were calculated by DAS.3.0 software.

[5] = Pharmacokinetics in Beagle canines; format: in vivo; conditions: Beagle canines; 2 mg/kg; intragastrical administration
Protocol: Method: Six healthy male Beagle canines were selected and divided into two groups. 2 mg/kg of Compound 369 or cyclovirobuxine D was administrated intragastrically, respectively. Blood samples (about 2 mL) were collected from the limb venous of canines 0 h before administration as well as 0.25 h, 0.5 h, 1 h, 2 h, 4 h, 6 h, 8 h, and 12 h after administration. The concentrations of Compound 369 and cyclovirobuxine D in plasma samples were determined by LC-MS/MS, and the pharmacokinetic parameters were calculated by DAS.3.0 software.

[6] = test system: ventricular myocytes of guinea pig; conditions: literature, cited from earlier work
[7] = n = 6, x ± SD, 10 μM group, baseline

SMILES: CCCCc1oc2ccccc2c1C(=O)c1cc(I)c(OCCN(CC)CC)c(I)c1 [Amiodarone, reference compound]
- percent change in action potential duration at 10 µM ([1]; Cavia porcellus, 20 min, n = 6, x ± SD, 10 μM, read-out: APD, Change rate (%)): 56.8%
- APD50, Change rate (%) ([1]; n = 6, x ± SD, 10 μM): 93.34% ± 53.59%^b
- APD50, Post-administration ([1]; n = 6, x ± SD, 10 μM): 0.0590 ± 0.0269^a
- APD90, Change rate (%) ([1]; n = 6, x ± SD, 10 μM): 68.91% ± 33.59%^b
- APD90, Post-administration ([1]; n = 6, x ± SD, 10 μM): 0.0862 ± 0.0275^a
- APD, Post-administration ([1]; n = 6, x ± SD, 10 μM): 0.1028 ± 0.0258^a
- APD50, Pre-administration [1, 7]: 0.0313 ± 0.0131
- APD90, Pre-administration [1, 7]: 0.0524 ± 0.0175
- Incidence (%) of atrial fibrillation (guinea pig heart): 17%
- Number of animals developing atrial fibrillation (guinea pig heart): 1
- Death (%) (SD rats [2]; 3 mg/kg): 13%
- Death n (SD rats [2]; 3 mg/kg): 1
- Ventricular fibrillation (%) (SD rats [2]; 3 mg/kg): 38%
- Ventricular fibrillation n (SD rats [2]; 3 mg/kg): 3
- Ventricular premature beat (%) (SD rats [2]; 3 mg/kg): 100%
- Ventricular premature beat n (SD rats [2]; 3 mg/kg): 8
- Ventricular tachycardia (%) (SD rats [2]; 3 mg/kg): 87%
- Ventricular tachycardia n (SD rats [2]; 3 mg/kg): 7

SMILES: CN[C@H]1CC[C@]23C[C@]24CC[C@]2(C)C(C(=O)COC(=O)c5ccccc5C(=O)O)=CC[C@@]2(C)[C@@H]4CC[C@H]3C1(C)C.Cl [Compound 570, (3β,5α)-4,4,14-trimethyl-3-(methylamino)-21-(2-carboxybenzoyloxy)-9,19-cyclopregnan-16-en-20-one hydrochloride]
- percent change in action potential duration at 0.0005 µM ([1]; Cavia porcellus, 20 min, screening stage, 0.0005 μM, read-out: APD, Change rate (%)): 12.3%
- percent change in action potential duration at 0.005 µM ([1]; Cavia porcellus, 20 min, screening stage, 0.005 μM, read-out: APD, Change rate (%)): 21.8%
- percent change in action potential duration at 0.05 µM ([1]; Cavia porcellus, 20 min, screening stage, 0.05 μM, read-out: APD, Change rate (%)): 30.5%
- Effect on the APD value of the action potential of the papillary muscle (in words) ([1]; screening stage, Table 3 summary): a certain degree of prolonged effects
- APD, Post-administration ([1]; screening stage, 0.0005 μM, about 20 min perfusion): 0.0813
- APD, Post-administration ([1]; screening stage, 0.005 μM, about 20 min perfusion): 0.0850
- APD, Post-administration ([1]; screening stage, 0.05 μM, about 20 min perfusion): 0.928

SMILES: CN[C@@H](C)[C@H]1[C@H](O)C[C@@]2(C)[C@@H]3CC[C@H]4C(C)(C)[C@@H](NC)CC[C@@]45C[C@@]35CC[C@]12C [Cyclovirobuxine D, reference compound]
- Incidence (%) of atrial fibrillation (guinea pig heart): 83%
- Number of animals developing atrial fibrillation (guinea pig heart): 5
- Death (%) (SD rats [2]; 1 mg/kg): 50%
- Death n (SD rats [2]; 1 mg/kg): 3
- Ventricular fibrillation (%) (SD rats [2]; 1 mg/kg): 83%
- Ventricular fibrillation n (SD rats [2]; 1 mg/kg): 5
- Ventricular premature beat (%) (SD rats [2]; 1 mg/kg): 100%
- Ventricular premature beat n (SD rats [2]; 1 mg/kg): 6
- Ventricular tachycardia (%) (SD rats [2]; 1 mg/kg): 100%
- Ventricular tachycardia n (SD rats [2]; 1 mg/kg): 6
- Maximum tolerance dose (MTD) (SD rats [3]): 5 mg/kg
- Maximum tolerance dose (MTD) (KM mice): 400 mg/kg
- AUCt ([4]; intragastrical administration): 110.6 ng·h/mL
- Cmax ([4]; intragastrical administration): 16.30 ng/mL
- F ([4]; intragastrical administration): 36%
- T1/2 ([4]; intragastrical administration): 18.85 h
- Tmax ([4]; intragastrical administration): 2.75 h
- AUCt ([4]; intravenous injection): 310.0 ng·h/mL
- Cmax ([4]; intravenous injection): 146.2 ng/mL
- T1/2 ([4]; intravenous injection): 8.54 h
- Tmax ([4]; intravenous injection): 0.25 h
- AUCt [5]: 274.3 ng·h/mL
- Cmax [5]: 19.09 ng/mL
- T1/2 [5]: 15.90 h
- Tmax [5]: 3.55 h
- Effect on APD of the action potential (in words) ([6]; 0.024 μM): can prolong the APD
- Spontaneous activity frequency of cardiomyocytes (in words) ([6]; 0.012-0.036 μM): slow down or even disappear
